The values below come from patent publication US6054437A, “Method for inducing death of neoplastic cells using piperazine derivatives” (Hitachi Chemical Research Center, Inc., priority 1997, dated 2000).

In series [1] the test system is KB-V-1 (resistant cells). In words: Drug accumulation assay ([3H]-vinblastine), resistant cells. The class given is cell-based, human. The method, then:
(§1) 1. Drug Accumulation Assays
(§2) where the effect of NCO-700 on the uptake of radioactive (^3 H)-vinblastine, an anticancer drug, is measured in cultured cancer cells, that are both drug-resistant and drug-sensitive (Reference 3).
(§3) In the first two in vitro assays, the drug accumulation assay and the cell survival assay, a human pharyngeal carcinoma cell line (KB-V-1) which is highly resistant to anticancer drugs was used. This cell line was developed by Drs. Ira Pastan and Michael Gottesman of the National Cancer Institute, by step-wise selection in colchicine of drug-resistant cells. The control cancer cell line (KB-3), from which the resistant cell lines were derived, is sensitive to anticancer drugs.
Measurement of [^3 H]-vinblastine accumulation was performed by the methods developed in the laboratory of Drs. […] In this method, KB-V-1 and KB-3 cells were plated in 10% fetal bovine serum at a density of 3×10^5 cells per well in 24-well Costar plates. The next day, the growth medium was replaced with Dulbecco's modified Eagle's medium with or without (control cells) 20 μM NCO-700. After ten minutes, the medium was removed and replaced with assay medium (0.5 ml) containing 0.1 μCi, (13 pmol) [^3 H]-vinblastine in the presence or absence of 20 μM NCO-700. After an additional 30 min, the medium was removed, the plates were washed three times in ice-cold phosphate-buffered saline, the cells were detached with trypsin, and radioactivity determined by scintillation counting.

For series [2], the system named is KB-V-1 (resistant). Particulars: cited from earlier work.
The conditions of series [3]: in vivo; cited from earlier work.
For series [4], the system named is KB-V-1 (resistant). Kind of series: Cell survival assay with vinblastine, resistant cells. Particulars: Homo sapiens. The class given is cell-based, human. The protocol:
(§4) where the effect of NCO-700 to enhance cancer cell killing by vinblastine was measured.
as §3, with “drugs. The resistant KB-V-1 cell line is approximately 275 times more resistant to vinblastine than the sensitive KB-3 line and has a greatly amplified mdr gene which generates the observed resistance.” for “drugs.”
(§5) The cell survival experiments shown above were performed by plating KB-3 (sensitive) and KB-V-1 (resistant) cells in 32 mm well plastic dishes at a cell density of 300-500 cells per well. Vinblastine and NCO-700 were added 16 hours after the initial cell plating. After 10 days of incubation at 37°, cell colonies were stained and counted.

Series [5] relates to KB-3 (sensitive cells). In words: Drug accumulation assay ([3H]-vinblastine), sensitive cells. The class given is cell-based, human. Particulars: KB-3, control (vinblastine alone). The protocol: as §1, §2
as §3, with “drugs. The resistant KB-V-1 cell line is approximately 275 times more resistant to vinblastine than the sensitive KB-3 line and has a greatly amplified mdr gene which generates the observed resistance.” for “drugs.”
Measurement of [^3 H]-vinblastine accumulation was performed by the methods developed in the laboratory of Drs. Gottesman and Pastan (Fojo et al., Cancer Res. 45:3002-3007, 1985). […] After an additional 30 min, the medium was removed, the plates were washed three times in ice-cold phosphate-buffered saline, the cells were detached with trypsin, and radioactivity determined by scintillation counting.

In series [6] the test system is KB-3 (sensitive). In words: Cell survival assay with vinblastine, sensitive cells. The class given is cell-based, human. Particulars: Homo sapiens, read-out: vinblastine to kill 50% of cells. The method, then:
as §4
as §3, with “drugs. The resistant KB-V-1 cell line is approximately 275 times more resistant to vinblastine than the sensitive KB-3 line and has a greatly amplified mdr gene which generates the observed resistance.” for “drugs.”
as §5

Series [7] concerns thiol protease, especially calcium-activated neutral protease (CANP). Particulars: cited from earlier work.

Each structure is given as a SMILES string. ≈ marks a conversion by molar mass, not a printed value. Read-outs that look alike come from different tables or passages of the source.

For `CC[C@]1(O)C[C@@H]2CN(CCc3c([nH]c4ccccc34)[C@@](C(=O)OC)(c3cc4c(cc3OC)N(C)[C@H]3[C@@](O)(C(=O)OC)[C@H](OC(C)=O)[C@]5(CC)C=CCN6CC[C@]43[C@@H]65)C2)C1` [vinblastine, reference compound], the vinblastine accumulation in series [1] (KB-V-1, control (vinblastine alone)) is recorded as 0.29 ± 0.03 pmole vinblastine/mg protein; in series [5] it was 2.99 ± 0.12 pmole vinblastine/mg protein. Further, in series [1] (drug-resistant cell line), the “accumulation of vinblastine (in words)” value is listed as “severely restricted”. Moreover, the “resistance to vinblastine, KB-V-1 versus KB-3” value in series [2] is listed as “approximately 275 times”. The side effects entry in series [3] was “inevitable side effects such as hair loss, weight loss, and liver and kidney damage”. In addition, the IC50 in series [4] (KB-V1, read-out: level of vinblastine needed to kill 50% of the tumor cells) was 0.825 µg/mL (≈ 1.02 µM); in series [4] (KB-V1, read-out: vinblastine to kill 50% of cells), 0.792 µg/mL (≈ 0.977 µM); in series [6] it was 0.0032 µg/mL (≈ 0.00395 µM).

`CCOC(=O)[C@H]1O[C@@H]1C(=O)N[C@@H](CC(C)C)C(=O)NCCC(C)C` [EST]: the “thiol protease inhibitory activity” value in series [7] is “thiol protease inhibitory activity, especially calcium-activated neutral protease (CANP) inhibitory activity”.
